Measured values taken from patent publication US7435721B2, “Transport peptides such as C-terminal Erns peptide and analogues thereof” (Pepscan Systems B.V., priority 2000, dated 2008).
No end group written: not given here. *: point of attachment. Biotin = O=C1N[C@H]2[C@H](CS[C@H]2CCCCC(=O)*)N1

Test system: live cells in suspension or subconfluent monolayers
Format: cell-based

Row | Substance | Concentration (translocation activity), optimization of E^rns peptide [µM] | Concentration (translocation activity), mapping of restrictocin L3 loop [µM] | Translocation activity (in words) | Concentration (translocation activity of transport peptides) [µM]
1 | Biotin-GRQLRIAGKRLRGRSK-NH2 [MDR-25] | 0.3 |  |  | 
2 | Biotin-KLIKGRTPIKFGKADCDRPPKHSQNGK-NH2 |  | 0.3 |  | 
3 | MAGAININ (GIGKFLHSAGKFGKAFVGEIMKS; also: biotinylated (site not given here)) [reference compound] |  |  | did not | 
4 | Biotin-KLIKGRTPIKFGKADCDRPPKHSQNGMGK-NH2 |  | 0.3 |  | 
5 | Biotin-KLIKGRTPIKFGKADCDRPPKHSGK-NH2 |  | 0.3 |  | 
6 | Biotin-PKKKRKV-NH2 |  |  |  | 0.1
7 | Biotin-GRQLRIAGRRLRRRSR-NH2 [MDM-26] | 0.1 |  |  | 
8 | Biotin-TRRSKRRSHRKF-NH2 [Herpes virus 8 k8 protein (res 124-135)] |  |  |  | 0.1
9 | Biotin-RRVTSWLGRQLRIAGKRLEGRSK-NH2 [MDL-8] | 1.0 |  |  | 
10 | Biotin-GRQLRRAGRRLRGRSR-NH2 [MDM-25] | 0.1 |  |  | 
11 | Biotin-KRIPNKKPGKKTTTKPTKKPTIK-NH2 [MDP-08] |  |  |  | 0.3
